From patent publication US11180615B2, “Cationic polyphosphazene compound, polyphosphazenes-drug conjugate compound and method for preparing same” (CNPHARM CO., LTD., priority 2016, dated 2021)

Columns and labels:
MCF-7 = assay: In vitro cytotoxicity (SRB method), MCF-7; type: cell-based; settings: MCF-7, mean ± SD, n = 3-4
Text: (§1) Since the anticancer agent paclitaxel is well known to be clinically very efficacious against many different cancers, breast (MCF-7), ovarian (SK-OV3), non-small cell lung (A549) and stomach (SNU638) cancer cell lines were selected to test their in vitro cytotoxicity according to the literature method (SRB method) (Rita Song, et. al, J. Control. Release 105 (2005) 142-150).

SK-Ov3 = assay: In vitro cytotoxicity (SRB method), SK-Ov3; type: cell-based; settings: SK-Ov3, mean ± SD, n = 3-4
Text: as §1

A-549 = assay: In vitro cytotoxicity (SRB method), A-549; type: cell-based; settings: A-549, mean ± SD, n = 3-4
Text: as §1

SNU-638 = assay: In vitro cytotoxicity (SRB method), SNU-638; type: cell-based; settings: SNU-638, mean ± SD, n = 3-4
Text: as §1

[1] = Critical micelle concentration by pyrene fluorescence method; type: physicochemical; settings: aqueous pyrene solution 6×10^−7 M
Method: As above-mentioned, the polyphosphazene-docetaxel conjugate of the present invention forms polymeric micelles in aqueous solution. In order for such polymer-drug conjugate to be clinically useful for IV injection, the solution stability of the micelles self-assembled from the polymer-drug conjugate is critical. Such a micelle stability is expressed as “critical micelle concentration (CMC),” which is measured by several methods, but the most widely used method is “pyrene fluorescence method” (K. Kalyanasundoram, et. al, J. Am. Chem. Soc. […], 99, 2039). According to the method the CMC value of the polyphosphazene-docetaxel conjugate of the present invention was measured as in the following:
An aqueous pyrene solution (6×10^−7 M) was prepared and using this solution a series of sample solutions of the polyphosphazene-paclitaxel conjugate of Example 20 was prepared in the concentration range of 5.0-0.0005% (w/w). Fluorescence spectra were measured at 339 nm (Iex) and 390 nm (Iem) and then from the ratio of the fluorescence intensities of band I and band III, the value of CMC was determined as shown in FIG. 4.

[2] = Biodegradability in buffer at 37° C. followed by GPC; type: physicochemical; settings: buffer pH 5.4, 37° C.
Method: Instrument: Yonglin GPC system
Column: Waters Hydrogel HR column (1×guard, 1×linear, 2×HR2)
Eluent: water/acetonitrile (8:2) (0.5% NaNO3)
Two sample solutions were prepared by dissolving the polyphosphazene-paclitaxel conjugate of Example 20 (250 mg) in a buffer solution (5 ml) at pH=5.4 and in another buffer solution (5 ml) at pH=7.4. The two sample solutions were slowly shaken at 37° C. in a water bath and 500 μl of the sample solution was taken at predetermined schedule (0.5, 1, 2, 4, 6, 8, 16 day after incubation) and freeze-dried. The dried samples were dissolved in tetrahydrofuran involving 0.2% t-butyl ammonium bromide and subjected to gel permeation chromatography (GPC).

[3] = test system: non-small cell lung cancer cell line A549; settings: versus Taxotere
[4] = test system: gastric cancer cell line MKN-28; assay: Nude mouse xenograft trial, MKN-28
Method: Both tumor size and body weight of each were measured from the beginning of first injection to 40 days.

Q: For `CC(=O)O[C@H]1C(=O)[C@@]2(C)[C@H]([C@H](OC(=O)c3ccccc3)[C@]3(O)C[C@H](OC(=O)[C@H](O)[C@@H](NC(=O)c4ccccc4)c4ccccc4)C(C)=C1C3(C)C)[C@]1(OC(C)=O)CO[C@@H]1C[C@@H]2O` [Paclitaxel, reference compound], which IC50 (MCF-7; Homo sapiens, MCF7) is on record?
A: 3.47 ± 0.62 nM

Q: And the IC50 (SK-Ov3; Homo sapiens, SK-OV-3)?
A: 15.3 ± 2.6 nM

Q: And the IC50 (A-549; Homo sapiens, A549)?
A: 6.63 ± 2.84 nM

Q: And the IC50 (SNU-638; Homo sapiens)?
A: 10.9 ± 0.9 nM

Q: For “[NP(MPEG550)1.50(GlyLysEt-2′-succinylpaclitaxel)0.50]n [Example 21]”, which IC50 (MCF-7) is on record?
A: 317 ± 141 nM

Q: What about the IC50 (SK-Ov3) of the same compound?
A: 6960 ± 142 nM

Q: What about the IC50 (A-549) of the same compound?
A: 1540 ± 41.8 nM

Q: What about the IC50 (SNU-638) of the same compound?
A: 5411 ± 46.6 nM

Q: Which “critical micelle concentration (CMC)” value [1] does the source give for “[NP(MPEG550)1.50(LysEt)0.2(LysEt-2′-succinylpaclitaxel)0.3]n [Example 20]” here?
A: 41 mg/L

Q: What about the “degradation of polyphosphazene backbone in acidic media” value [2] of the same compound?
A: continuously degradable in acidic media

Q: What about the IC50 (MCF-7) of the same compound?
A: 165 ± 86.5 nM

Q: And the IC50 (SK-Ov3)?
A: 588 ± 47.8 nM

Q: What about the IC50 (A-549) of the same compound?
A: 170 ± 48.3 nM

Q: What about the IC50 (SNU-638) of the same compound?
A: 364 ± 202 nM

Q: Which results are given for “[NP(MPEG550)1.5(LysEt-2′-aconitic-docetaxel)0.5]n [Example 14]”?
A: antitumor activity against A549 tumor [3]: even better antitumor activity than the reference Taxotere; antitumor activity against MKN-28 gastric tumor ([4]; 10 and 20 mg/kg as docetaxel, day 1, 5, 9, 40 days, versus Taxotere 10 mg/kg): strong antitumor activity equivalent to Taxotere; systemic toxicity versus Taxotere ([4]; judged from body weight, MKN-28 xenograft mice): lower systemic toxicity
